Here are results for six compounds from patent US5342841A, “Xanthine derivatives” (Kyowa Hakko Kogyo Co., Ltd., priority 1992, dated 1994).

For one assay, the system named is Male Wistar rats. Kind of assay: Diuretic activity (oral, saline-loaded rats). Type of assay: in vivo, rat. The conditions noted are these: for Increase in volume of Urine / Na+/K+ / Increase in K+ excretion / Increase in Na+ excretion: 6 hours; for Increase in volume of Urine / Increase in K+ excretion / Increase in Na+ excretion: relative to control; for Na+/K+: relative to control (1.00). Here is the method: Male Wistar rats weighing 150 to 300 g were fasted for 18 hours. A test compound and saline (25 ml/kg) were orally administered to the test rats and only saline was administered to the control rats. Then, urine was collected for 6 hours. The test was carried out using 3 groups of animals per test compound, each group consisting of 3 animals. The volume of the urine was measured by using a measuring cylinder and electrolytes (Na^+ and K^+) in the urine were assayed with a flame photometer (Model […] manufactured by Hitachi Ltd.). The parameters in Table 3 are all expressed by relative value to the control.

Assay [1] concerns glycerol-induced renal insufficiency in male Wistar rats. The assay can be described thus: Renal protecting activity (glycerol-induced renal insufficiency model), serum creatinine and urea nitrogen. The class given is in vivo, rat. The conditions noted are these: i.p.; for Creatinine content in serum, test compound administered / Urea nitrogen content in serum, test compound administered: 24 hours after glycerol; for increases in creatinine content and urea nitrogen content of the serum (in words): Compound 1 at 0.1 mg/kg (p<0.001). On the procedure:
Renal insufficiency is the condition that the homeostasis of body fluid is unable to be maintained by disorder of renal function. It is known that subcutaneous or intramuscular administration of glycerol to rat induces acute renal insufficiency characterized by renal tubular disturbance [Can. J. Physiol.
(§1) Male Wistar rats were fisted from both food and water for 18 hours. A test compound or saline (control) was intraperitoneally administered to the rats. After 30 minutes, the rats were anesthesized with ether and the back skin was picked up and 0.8 ml/100 g of 50% glycerol was subcutaneously administered. Twenty four hours after the glycerol injection, the rats were anesthesized with ether and 5 ml of the blood was collected from the descending aorta. After being allowed to stand for 30 minutes or longer, the blood sample was centrifuged at 3000 rpm for 10 minutes to obtain the serum. Creatinine in the serum sample was determined using autoanalyzer (AU510, Olympus Optical Co., Ltd.) or clinical analysis kit of creatinine (Creatinine Test Wako; by Wako Pure Chemical Ind., Japan). Urea nitrogen in the serum was determined using autoanalyzer (AU510; made by Olympus Optical Co., Ltd.) or clinical analysis kit of urea nitrogen (Urea Nitrogen Test Wako; by Wako Pure Chemical Ind., Japan).
Test of the significance between the control group and the test compound-administered group was performed by the Student's t-test (n=8 to 10).

A further assay deals with T1, Adenosine A1 receptor (Cavia porcellus, UniProt P47745).
T1 construct: from tissue; host or cells: guinea pig cerebrum membranes
T1 sequence (P47745 1-326): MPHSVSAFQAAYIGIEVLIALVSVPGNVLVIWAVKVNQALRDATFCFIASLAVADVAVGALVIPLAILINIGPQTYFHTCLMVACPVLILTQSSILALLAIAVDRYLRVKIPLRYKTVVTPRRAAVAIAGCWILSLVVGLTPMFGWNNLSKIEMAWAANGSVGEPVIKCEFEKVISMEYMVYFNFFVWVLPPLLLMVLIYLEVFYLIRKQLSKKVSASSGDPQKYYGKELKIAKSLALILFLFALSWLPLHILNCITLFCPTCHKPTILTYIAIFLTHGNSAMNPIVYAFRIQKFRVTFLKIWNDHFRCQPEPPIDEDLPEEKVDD
Kind of assay: Adenosine A1 receptor binding (3H-CHA). The settings on record: guinea pig cerebrum; for Ki: 3H-CHA, Cheng-Prusoff's equation; for inhibition at 100 µM: 10^-4 M test compound; for inhibition at 100 µM / inhibition at 10 µM: 3H-CHA 1.1 nM; for inhibition at 10 µM: 10^-5 M test compound. On the procedure:
This test was conducted according to the method of Bruns et al. [Proc. Natl. Acad. Sci., 77, 5547 (1980)] with slight modification.
Cerebrum of a guinea pig was suspended in ice cooled 50 mM Tris hydroxymethyl aminomethane hydrochloride (Tris HCl) buffer (pH 7.7) by using Polytron homogenizer (manufactured by Kinematicas Co.). The suspension was centrifuged (50,000×g, 10 minutes), and the precipitate was suspended again in the same amount of 50 mM Tris HCl buffer. The suspension was centrifuged under the same conditions, and the precipitate obtained was suspended once again in 50 mM Tris HCl buffer to give a tissue concentration of 100 mg (wet weight)/ml. The tissue suspension was incubated at 37° C. for 30 minutes in the presence of 0.02 unit/mg tissue of adenosine deaminase (manufactured by Sigma Co.). The tissue suspension was then centrifuged (50,000×g, 10 minutes), and 50 mM Tris HCl buffer was added to the precipitate to adjust the concentration of tissue to 10 mg (wet weight)/ml.
To 1 ml of the thus prepared tissue suspension were added 50 μl of cyclohexyladenosine labeled with tritium [^3 H-CHA, 27 Ci/mmol, manufactured by New England Nuclear Co.] (final concentration: 1.1 nM) and 50 μl of a test compound. The mixture was allowed to stand at 25° C. for 90 minutes and then rapidly filtered by suction through a glass fiber filter (GF/C manufactured by Whatman Co.). The filter was immediately washed three times with 5 ml each of ice cold 50 mM Tris HCl buffer, and transferred to a vial, and a scintillator (EX-H by Wako Pure Chemical Industries, Ltd.) was added thereto. The radioactivity on the filter was determined with a scintillation counter (manufactured by Packard Instrument Co.).
The inhibition rate of the test compound against the binding of A1 receptor (^3 H-CHA binding) was calculated by the following equation: [formula]
2. "T" means the radioactivity of ^3 H-CHA bound in the absence of a test compound.
3. "N" means the radioactivity of ^3 H-CHA bound in the presence of 10 μM N^6 -(L-2-phenylisopropyl)adenosine (manufactured by Sigma Co.).
The inhibition constant (Ki value) shown in the table was calculated by the Cheng-Prusoff's equation.

Assay [2] relates to left kidneys of male Wistar rats with glycerol-induced renal insufficiency. Kind of assay: Pathological examination of removed kidneys (glycerol-induced renal insufficiency model). The class given is in vivo, rat. On the procedure: as §1
Further, the left kidneys were taken out from the animals of the test compound-treated groups and the control groups to prepare pathological samples.

For the next assay, the target named is T2, Adenosine A2 receptor (Rattus norvegicus, UniProt P30543).
T2 construct: using rat corpus striatum to prepare the final precipitate; from tissue; host or cells: rat corpus striatum membranes
The assay can be described thus: Adenosine A2 receptor binding test (3H-NECA). The conditions noted are these: for Ki: 3H-NECA, CPA 50 nM, rat corpus striatum; for inhibition at 10 µM / inhibition at 100 µM: read-out: A2 Receptor Inhibition (%). On the procedure:
The similar procedure as in 1) above was repeated using rat corpus striatum to prepare the final precipitate. The precipitate was suspended in 50 mM Tris HCl buffer containing 10 mM magnesium chloride and 0.02 unit/mg tissue of adenosine deaminase (manufactured by Sigma Co.) to give a tissue concentration of 5 mg (wet weight)/ml.
To 1 ml of the thus prepared tissue suspension were added 50 μl of a mixture of N-ethylcarboxamidoadenosine labeled with tritium [^3 H-NECA, 26 Ci/mmol, manufactured by Amersham Co.] […] (final concentration: 50 nM), and 50 μl of a test compound. The mixture was allowed to stand at 25° C. for 120 minutes and then treated in the same manner as in 1) above to determine the radioactivity.
The inhibition rate of the test compound against the binding of A2 receptor (^3 H-NECA binding) was calculated by the following equation: [formula]
2. "T" means the radioactivity of ^3 H-NECA bound in the absence of a test compound.
3. "N" means the radioactivity of ^3 H-NECA bound in the presence of 100 μM CPA.
The Ki value shown in the table was calculated by the following equation: [formula]
L: Concentration of ^3 H-NECA
Kd: Dissociation constant of ^3 H-NECA
Kc: Inhibition constant of CPA

The mark [3] stands for this setting: 1 mg/kg, control 4.53 ± 0.19, *** P < 0.001, ** P < 0.01.
The mark [4] stands for this setting: 1 mg/kg, control 193.6 ± 6.4, *** P < 0.001, ** P < 0.01.

Molecules are shown by their SMILES. Some results are limits rather than exact numbers.

T2 sequence (P30543 whole entry): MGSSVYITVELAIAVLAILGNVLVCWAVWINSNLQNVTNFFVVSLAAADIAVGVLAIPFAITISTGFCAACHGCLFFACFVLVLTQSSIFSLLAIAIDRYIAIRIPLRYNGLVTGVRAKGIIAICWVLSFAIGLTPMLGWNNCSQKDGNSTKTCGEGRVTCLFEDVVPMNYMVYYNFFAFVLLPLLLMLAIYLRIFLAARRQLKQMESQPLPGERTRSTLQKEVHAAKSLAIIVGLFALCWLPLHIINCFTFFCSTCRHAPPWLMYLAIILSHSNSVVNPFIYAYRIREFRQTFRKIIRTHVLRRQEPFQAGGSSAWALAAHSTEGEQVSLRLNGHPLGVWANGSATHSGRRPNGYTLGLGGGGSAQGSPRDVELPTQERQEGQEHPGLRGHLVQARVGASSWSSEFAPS

`NS(=O)(=O)c1cc(C(=O)O)c(NCc2ccco2)cc1Cl` [Furosemide, reference compound]: in the assay on Male Wistar rats (25 mg/kg), the “Increase in volume of Urine” value amounted to 75% and the “Na+/K+” value was found to be 1.07. Also, the “Creatinine content in serum, test compound administered” value (“Creatinine content in serum” for short) in assay [1] (10 mg/kg, control 3.22 ± 0.35, no significance mark) came to 4.17 ± 0.41 mg/dL. In addition, in assay [1] (10 mg/kg, control 110.7 ± 9.4, * P < 0.05), the “Urea nitrogen content in serum, test compound administered” value (“Urea nitrogen content in serum” for short) worked out at 150.3 ± 13.7 mg/dL. Also, in assay [1] (conclusion from Table 4), the “serum creatinine (in words)” value was “tendency to increase the serum creatinine”.

In the case of `O=c1c2[nH]c(C34CC5CC(CC3C5)C4)nc2n(CC2CC2)c(=O)n1CC1CC1` [Compound 1, 1,3-Bis(cyclopropylmethyl)-8-(3-noradamantyl)xanthine], on Adenosine A1 receptor, affinity was put at a Ki of 1.9 nM, the inhibition at 100 µM was 101% and the inhibition at 10 µM was found to be 99%. Further, in the assay on Male Wistar rats (0.1 mg/kg), the “Increase in K+ excretion” value was 9%, the “Increase in Na+ excretion” value is 146%, the “Increase in volume of Urine” value is 184% and the “Na+/K+” value amounted to 2.25. In addition, the “Na+ diuretic action” value in the assay on Male Wistar rats (conclusion in words from Table 3) is recorded as “potent”. Moreover, the “Creatinine content in serum” value in assay [1] (0.1 mg/kg, control 4.53 ± 0.19, *** P < 0.001) came to 2.52 ± 0.24 mg/dL. Further, in assay [1] (0.1 mg/kg, control 4.86 ± 0.12, *** P < 0.001), the “Creatinine content in serum” value worked out at 1.97 ± 0.21 mg/dL. Besides, the “Urea nitrogen content in serum” value in assay [1] (0.1 mg/kg, control 152.6 ± 4.1, *** P < 0.001) worked out at 61.3 ± 8.7 mg/dL. Further, the “Urea nitrogen content in serum” value in assay [1] (0.1 mg/kg, control 193.6 ± 6.4, *** P < 0.001) turned out to be 109.4 ± 12.8 mg/dL. Also, the “Creatinine content in serum” value in assay [1] (setting [3]) is 2.23 ± 0.30 mg/dL. Moreover, the “Urea nitrogen content in serum” value in assay [1] (setting [4]) was found to be 97.2 ± 13.6 mg/dL. Also, the “increases in creatinine content and urea nitrogen content of the serum (in words)” value in assay [1] (conclusion from Table 4) is on record as “significantly suppressed”. For the same compound, the “state of kidneys (pathological examination)” value in assay [2] is “significantly improved”. For the same compound, at Adenosine A2 receptor, the Ki was more than 10000 nM, the inhibition at 10 µM came out at 49% and the inhibition at 100 µM worked out at 70%.

Take `O=c1c2[nH]c(C(C3CC3)C3CC3)nc2n(C2CC2)c(=O)n1C1CC1` [Compound 4, 1,3-Dicyclopropyl-8-dicyclopropylmethylxanthine]: on Adenosine A1 receptor, the Ki was 42 nM, the inhibition at 100 µM was found to be 99% and the inhibition at 10 µM is 99%. Besides, in the assay with Male Wistar rats (1.6 mg/kg), the “Increase in K+ excretion” value stood at 18%, the “Increase in Na+ excretion” value is reported as 54%, the “Increase in volume of Urine” value is recorded as 54% and the “Na+/K+” value came to 1.31. The “Creatinine content in serum” value in assay [1] (setting [3]) came out at 2.55 ± 0.43 mg/dL. The “Urea nitrogen content in serum” value in assay [1] (setting [4]) is 108.5 ± 16.8 mg/dL. In addition, on Adenosine A2 receptor, the affinity, expressed as Ki, was 2400 nM; the inhibition at 10 µM amounted to 104%; the inhibition at 100 µM came out at 108%.

Turning to `O=c1c2[nH]c(C(C3CC3)C3CC3)nc2n(CC2CC2)c(=O)n1CC1CC1` [Compound 2, 1,3-Bis(cyclopropylmethyl)-8-dicyclopropylmethylxanthine], at Adenosine A1 receptor, the Ki came out at 2.7 nM, the inhibition at 100 µM came out at 101% and the inhibition at 10 µM was 100%. Moreover, in the assay on Male Wistar rats (1.6 mg/kg), the “Increase in K+ excretion” value was found to be 4%, the “Increase in Na+ excretion” value worked out at 49%, the “Increase in volume of Urine” value is recorded as 43% and the “Na+/K+” value came to 1.44. In addition, on Adenosine A2 receptor, the affinity, expressed as Ki, was 210 nM; the inhibition at 10 µM stood at 93%; the inhibition at 100 µM was 100%.

`Cn1c(=O)c2[nH]cnc2n(C)c1=O` [Aminophylline, reference compound]: in the assay with Male Wistar rats (25 mg/kg), the “Increase in K+ excretion” value stood at 17%, the “Increase in Na+ excretion” value is reported as 89%, the “Increase in volume of Urine” value came out at 34% and the “Na+/K+” value turned out to be 1.62. The “Creatinine content in serum” value in assay [1] (10 mg/kg, control 5.43 ± 0.11, no significance mark) was 5.32 ± 0.19 mg/dL. In assay [1] (10 mg/kg, control 182.5 ± 3.4, no significance mark), the “Urea nitrogen content in serum” value was found to be 174.0 ± 10.4 mg/dL. The “increases in creatinine content and urea nitrogen content of the serum (in words)” value in assay [1] (conclusion from Table 4) is listed as “weak effect”.

For the compound `O=c1c2[nH]c(C34CC5CC(CC3C5)C4)nc2n(C2CC2)c(=O)n1C1CC1` [Compound 3, 1,3-Dicyclopropyl-8-(3-noradamantyl)xanthine], at Adenosine A1 receptor, the Ki is 38 nM, the inhibition at 100 µM amounted to 98% and the inhibition at 10 µM stood at 99%. Moreover, in the assay on Male Wistar rats (0.1 mg/kg), the “Increase in K+ excretion” value turned out to be 0%, the “Increase in Na+ excretion” value was 52%, the “Increase in volume of Urine” value came out at 48% and the “Na+/K+” value was found to be 1.52. Moreover, in the assay on Male Wistar rats (1.6 mg/kg), the “Increase in K+ excretion” value came to 8%, the “Increase in Na+ excretion” value was 118%, the “Increase in volume of Urine” value is 93% and the “Na+/K+” value came out at 2.02. At Adenosine A2 receptor, the Ki turned out to be 1300 nM, the inhibition at 10 µM worked out at 78% and the inhibition at 100 µM was 103%.
